Data: article PMC5669903
Several values for one entry are separate records, joined by “and”; a condition that tells them apart may be missing. Identical values can stand only once. Like-named read-outs stand apart in the source and are kept apart here.

What was measured:
TMV RNA = assay: ITC binding of NNM to TMV RNA; parameters: species or system Tobacco mosaic virus; conditions: 20°C
[1] = biological target: wt CP four-layer aggregate discs (Tobacco mosaic virus, UniProt P69687); assay: Disassembly of wt CP discs (isolated from TMV particles) by SEC
Chain of wt CP four-layer aggregate discs (P69687 whole entry): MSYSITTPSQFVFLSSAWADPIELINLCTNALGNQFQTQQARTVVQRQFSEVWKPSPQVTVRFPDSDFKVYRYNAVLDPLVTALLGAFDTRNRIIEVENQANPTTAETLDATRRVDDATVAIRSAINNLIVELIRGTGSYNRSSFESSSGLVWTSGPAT

TMV CP discs [2] = biological target: T1, TMV CP discs (Tobacco mosaic virus, UniProt P69687); type: binding; conditions: for Kd: 20°C
T1 construct: 6×His (N, cleaved yes); made in house; host or cells: Escherichia coli BL21 (DE3)-plysS, pET28a
T1 sequence (P69687 whole entry): as above
Excerpt: We next determined the affinity between CP and NNM using two other independent methods, fluorescence spectrum and ITC.

Mutant CP Discs = biological target: T2, Mutant CP Discs (Tobacco mosaic virus, UniProt P69687, R72G/S16G/S50G/Y73G); assay: biochemical; type: binding; conditions: MST, 20°C
T2 construct: 6×His; made in house
T2 sequence (P69687 whole entry S16G/S50G/R72G/Y73G): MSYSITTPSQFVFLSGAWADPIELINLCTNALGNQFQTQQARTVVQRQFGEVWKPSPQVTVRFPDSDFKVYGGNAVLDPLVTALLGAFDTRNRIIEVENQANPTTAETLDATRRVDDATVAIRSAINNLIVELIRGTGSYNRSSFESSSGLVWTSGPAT

mutant TMV CP monomer = biological target: T3, mutant TMV CP monomer (Tobacco mosaic virus, UniProt P69687, R72G/S16G/S50G/Y73G); assay: biochemical; type: binding; conditions: Kd to mutant CP monomer, MST, 20°C
T3 construct: 6×His; made in house
T3 sequence (P69687 whole entry S16G/S50G/R72G/Y73G): as above

[3] = biological target: recombinant TMV CP four-layer aggregate discs (Tobacco mosaic virus, UniProt P69687); assay: Disassembly of recombinant TMV CP discs by SEC and TEM
Chain of recombinant TMV CP four-layer aggregate discs (P69687 whole entry): as the sequence (P69687 whole entry) above

TMV = assay: Curative activity against TMV, half leaf; type: in vivo, Tobacco mosaic virus; conditions: for Curative activity against TMV: half leaf
TMV particles = assay: MST binding of NNM to TMV particles; parameters: species or system Tobacco mosaic virus
TMV CP monomer = TMV CP monomer (Tobacco mosaic virus, UniProt P69687); assay: biochemical; conditions: Kd to CP monomer
Chain of TMV CP monomer (P69687 whole entry): as above

mutated CP discs = mutated CP discs (Tobacco mosaic virus, UniProt P69687, R72G/S16G/S50G/Y73G); assay: Disassembly of mutated CP discs by SEC and TEM; type: biochemical; conditions: 1:20 (CP discs:NNM) ratio
Chain of mutated CP discs (P69687 whole entry R72G/S16G/S50G/Y73G, looked up): as the sequence (P69687 whole entry S16G/S50G/R72G/Y73G) above

TMV CP discs [4] = biological target: T1, TMV CP discs; assay: biochemical; type: binding
TMV CP replication = assay: Leaf disc method with western blot of TMV CP
TMV CP mutant [5] = biological target: T4, TMV CP mutant (Tobacco mosaic virus, UniProt P69687, R72G/S16G/S50G/Y73G); type: binding; conditions: ITC, one-set-of-sites model; 5 mM compounds and 0.5 mM TMV CP
T4 construct: 6×His; made in house
T4 sequence (P69687 whole entry S16G/S50G/R72G/Y73G): as above

TMV CP mutant [6] = biological target: T4, TMV CP mutant; type: binding; conditions: fluorescence spectrum; 5 mM compounds and 0.5 mM TMV CP; read-out: Kd mutant (Fluo.)

## CNCC(=O)N[C@@H](CO)C(=O)N[C@H]1[C@H](O)[C@@H](O)[C@H](n2ccc(N)nc2=O)O[C@@H]1C(N)=O [NNM, Ningnanmycin]
TMV RNA
  Kd: 16.5 µM
[1]
  disassembly of wt CP four-layer aggregate discs: completely disassembled into monomeric proteins
TMV CP discs [2]
  K (binding constant) to TMV CP discs: 534000 ± 27500 M⁻¹
  number of NNM molecules interacting with one CP disc: 39 to 41 and 39–41
  ΔG: −6.0
  ΔH: 17.2 kcal/mol
Mutant CP Discs; Kd to mutant CP discs
  Kd: 43.5 µM and ~43.5 µM
Mutant TMV CP monomer
  Kd: 212 µM and ~212 µM
[3]
  disassembly of discs into monomeric proteins: completely disassembled into monomeric proteins
  portion of the discs disassembled into monomeric proteins: 60%
  visibility of four-layer aggregate discs by TEM: invisible
TMV; 100 μg/mL
  Curative activity against TMV: 29.8%
TMV; 500 μg/mL
  Curative activity against TMV: 60.0%
TMV particles; 20°C
  Kd: 25.8 µM
TMV particles; 25°C
  Kd: 31 µM
TMV particles; 30°C
  Kd: 52.3 µM
TMV particles; from 20 to 30°C
  Kd: 25.8 to 52.3 µM
TMV CP monomer
  Kd: 18.6 µM and ~18.6 µM
Mutated CP discs
  mutated protein discs disassembled into protein monomers: approximately 35%
TMV CP discs [4]; Kd to CP discs
  Kd: 1.1 to 3.96 µM
TMV CP discs [4]; Kd to TMV CP discs
  Kd: 1.1 µM and 1.29 µM and 3.96 µM and ~1.1 µM
TMV CP replication; 0.5 mg/mL NNM for 24 h
  bands of the CP in western blot: weak
TMV CP replication; 0.5 mg/mL NNM, after 72 h
  bands of the CP in western blot: not visible
TMV CP replication; 500 μg/mL NNM, time not stated
  bands of CP in western blot: weak

## Cytosinpeptidemycin
TMV CP discs [2]; ITC, one-set-of-sites model
  Kd: 5.41 µM
TMV CP discs [2]; fluorescence spectrum, read-out: Kd to TMV CP discs (Fluo.)
  Kd: 23.2 µM
Mutant CP Discs
  Kd to mutant CP discs: No binding
Mutant CP Discs; listed as cytosinpeptidemycin
  Kd to mutant CP discs: no binding
TMV CP mutant [5]
  Kd: 33 µM
TMV CP mutant [6]
  Kd: 250 µM
TMV; 100 μg/mL
  Curative activity against TMV: 11.9%
TMV; 500 μg/mL
  Curative activity against TMV: 48.7%
TMV; 500 μg/mL, vivo experiment
  anti-TMV activity in words: significant anti-TMV activities
TMV CP discs [4]; MST, 20°C, read-out: Kd to TMV CP discs
  Kd: 4.84 µM
